Like-named read-outs stand apart in the source and are kept apart here.
Experiments:
[1] = log P by HPLC on a reversed-phase column (C18), EEC Directive 79/831 Annex V.A8; assay type: physicochemical; details: 55° C.
Procedure: The log P values are measured according to EEC Directive 79/831 Annex V.A8 by HPLC (high-performance liquid chromatography) on a reversed-phase column (C18). Temperature: 55° C. The LC-MS determination in the acidic range is carried out at pH 2.7 using the mobile phases 0.1% aqueous formic acid and acetonitrile (contains 0.1% formic acid); linear gradient from 10% acetonitrile to 95% acetonitrile. Called log P (HCOOH) or log P[a] in the table. The LC-MS determination in the neutral range is carried out at pH 7.8 using the mobile phases 0.001 molar aqueous ammonium bicarbonate solution and acetonitrile; linear gradient from 10% acetonitrile to 95% acetonitrile. Called log P (neutral) or log P[n] in the table. Calibration is carried out using unbranched alkan-2-ones (having 3 to 16 carbon atoms) with known log P values (log P values determined on the basis of the retention times by linear interpolation between two successive alkanones).

[2] = system: Myzus persicae; test: Myzus persicae - oral test; assay type: in vivo; details: application rate 4 ppm, after 5 days, green peach aphids, mixed population, oral uptake
Procedure: Myzus persicae—Oral Test Solvent: 100 parts by weight of acetone To produce a suitable preparation of active compound, 1 part by weight of active compound is dissolved using the specified parts by weight of solvent and made up with water until the desired concentration is attained. 50 μl of the active compound preparation are transferred into microtitre plates and made up to a final volume of 200 μl with 150 μl of IPL41 insect medium (33%+15% sugar). Subsequently, the plates are sealed with parafilm, which a mixed population of green peach aphids (Myzus persicae) within a second microtitre plate is able to puncture and imbibe the solution through it. After 5 days, the efficacy in % is determined. 100% means that all the aphids have been killed; 0% means that no aphids have been killed.

[3] = system: Myzus persicae; test: Myzus persicae - spray test; assay type: in vivo; details: application rate 20 g/ha, after 5 days, sprayed Chinese cabbage leaf discs, all stages of green peach aphid
Procedure: Myzus persicae—Spray Test Solvent: 78 parts by weight of acetone • • 1.5 parts by weight of dimethylformamide Emulsifier: alkylaryl polyglycol ether To produce a suitable active compound preparation, 1 part by weight of active compound is dissolved with the specified parts by weight of solvent and made up with water containing an emulsifier concentration of 1000 ppm until the desired concentration is attained. To produce further test concentrations, the formulation is diluted with emulsifier-containing water. Discs of Chinese cabbage leaves (Brassica pekinensis) infested by all stages of the green peach aphid (Myzus persicae) are sprayed with an active compound formulation of the desired concentration. After 5 days, the efficacy in % is determined. 100% means that all the aphids have been killed; 0% means that no aphids have been killed.

[4] = system: Phaedon cochleariae; test: Phaedon cochleariae - spray test; assay type: in vivo; details: application rate 100 g/ha, after 7 days, sprayed Chinese cabbage leaf discs, mustard beetle larvae
Procedure: Phaedon cochleariae—Spray Test
Solvent: 78.0 parts by weight of acetone • • 1.5 parts by weight of dimethylformamide
Emulsifier: alkylaryl polyglycol ether
To produce a suitable active compound preparation, 1 part by weight of active compound is dissolved with the specified parts by weight of solvent and made up with water containing an emulsifier concentration of 1000 ppm until the desired concentration is attained. To produce further test concentrations, the formulation is diluted with emulsifier-containing water.
Discs of Chinese cabbage leaves (Brassica pekinensis) are sprayed with an active compound formulation of the desired concentration and, after drying, populated with larvae of the mustard beetle (Phaedon cochleariae).
After 7 days, the efficacy in % is determined. 100% means that all the beetle larvae have been killed; 0% means that no beetle larvae have been killed.

[5] = acidic range, pH 2.7, 0.1% aqueous formic acid/acetonitrile gradient, read-out: log P[a] (log P (HCOOH))
[6] = neutral range, pH 7.8, 0.001 molar aqueous ammonium bicarbonate/acetonitrile gradient, read-out: log P[n] (log P (neutral))

| Structure (SMILES) | chromatographic logP [1, 5] | chromatographic logP [1, 6] | efficacy in % (aphids killed) [2] [%] | efficacy in % (aphids killed) [3] [%] | efficacy in % (beetle larvae killed) [4] [%] |
| --- | --- | --- | --- | --- | --- |
| CCS(=O)(=O)c1c(-c2nc3cc(C(F)(F)F)cnc3n2C)ncc2ncsc12 [Example I-1, 7-(Ethylsulfonyl)-6-[3-methyl-6-(trifluoromethyl)-3H-imidazo[4,5-b]pyridin-2-yl][1,3]thiazolo[4,5-c]pyridine] | 2.6 | 2.53 | 100 | 90 | 83 |
| CC[S+]([O-])c1c(-c2nc3cc(C(F)(F)F)cnc3n2C)ncc2ncsc12 (centres unmarked) [Example I-2, 7-(Ethylsulfinyl)-6-[3-methyl-6-(trifluoromethyl)-3H-imidazo[4,5-b]pyridin-2-yl][1,3]thiazolo[4,5-c]pyridine] | 3.09 | 2.98 | – | – | – |
| CCSc1c(-c2nc3cc(C(F)(F)F)cnc3n2C)ncc2ncsc12 [Example I-3, 7-(Ethylsulfanyl)-6-[3-methyl-6-(trifluoromethyl)-3H-imidazo[4,5-b]pyridin-2-yl][1,3]thiazolo[4,5-c]pyridine] | 2.96 | 2.94 | – | – | – |
| CCS(=O)(=O)c1c(-c2nc3cc(C(F)(F)F)cnc3n2C)ncc2ccsc12 [Example I-4] | 2.88 | 2.82 | 100 | 90 | 100 |
| CCS(=O)(=O)c1c(-c2nc3cc(C(F)(F)F)ncc3n2C)ncc2ccsc12 [Example I-5] | 2.53 | 2.4 | – | 90 | – |
| CCSc1c(-c2nc3cc(C(F)(F)F)ncc3n2C)ncc2ccsc12 [Example I-6] | 2.95 | 2.85 | – | – | – |

The next lines start with results.

| chromatographic logP [1, 5] | chromatographic logP [1, 6] | Structure (SMILES) | efficacy in % (aphids killed) [2] [%] | efficacy in % (aphids killed) [3] [%] | efficacy in % (beetle larvae killed) [4] [%] |
| --- | --- | --- | --- | --- | --- |
| 2.56 | 2.72 | CCS(=O)(=O)c1c(-c2nc3cc(C(F)(F)F)cnc3n2C)ncc2sccc12 [Example I-7] | 100 | 100 | – |
| 2.3 | 2.28 | CCS(=O)(=O)c1c(-c2nc3cc(C(F)(F)F)ncc3n2C)ncc2sccc12 [Example I-8] | 100 | 100 | – |
| 2.23 | 2.17 | CCOC(=O)c1ncc2ncsc2c1SCC [XL-1, Ethyl 7-(ethylsulfanyl)[1,3]thiazolo[4,5-c]pyridine-6-carboxylate] | – | – | – |
| 0.88 | – | CCSc1c(C(=O)O)ncc2ncsc12 [XLI-1, 7-(Ethylsulfanyl)[1,3]thiazolo[4,5-c]pyridine-6-carboxylic acid] | – | – | – |
| 2.58 | 2.57 | CCOC(=O)c1ncc2ncsc2c1OS(=O)(=O)C(F)(F)F [XXXIV-1, Ethyl 7-{[(trifluoromethyl)sulfonyl]oxy}[1,3]thiazolo[4,5-c]pyridine-6-carboxylate] | – | – | – |

Reference: US10561145B2, “Fused bicyclic heterocycle derivatives as pesticides” (Bayer CropScience Aktiengesellschaft, priority 2016, dated 2020)
